Values after ≈ are worked out from the molar mass of the structure shown.

The assay is described as follows: Cytotoxicity against human NSCLC-N6 cells by MTT assay. It counts as functional, cell-based. For orientation: Tetrazolium assays rely on reduction of a dye to a coloured formazan, in cell work by metabolically active cells.

Regarding `C=C1C[C@H](C)C(=O)N[C@@H](C)C(=O)N(C)[C@H](Cc2c(Br)[nH]c3ccccc23)C(=O)N[C@@H](c2ccc(O)cc2)CC(=O)O[C@@H](C)C[C@@H](C)C1O` (stereo partly drawn) [JASPAMIDE C], it took 1.1 µg/mL (≈ 1.52 µM) to reach half-maximal inhibition (IC50).

Regarding `C/C1=C\[C@H](C)C[C@H](C)OC(=O)C[C@H](c2ccc(O)cc2)NC(=O)[C@@H](Cc2c(Br)[nH]c3ccccc23)N(C)C(=O)[C@H](C)NC(=O)[C@@H](C)C1` [JASPAMIDE], the IC50 (usually the concentration that gives 50% inhibition) was determined as 0.36 µg/mL (≈ 0.507 µM). Against the preceding molecule, the IC50 is about 3.1-fold lower.

Take `C=C1C[C@H](C)C(=O)N[C@@H](C)C(=O)N(C)[C@H](Cc2c(Br)[nH]c3ccccc23)C(=O)N[C@@H](c2ccc(O)cc2)CC(=O)O[C@@H](C)C[C@@H](C)C1=O` [JASPLAKINOLIDE B]: half-maximal inhibition (IC50) required 3.3 µg/mL (≈ 4.56 µM).

The record behind these values is ChEMBL document CHEMBL1158026, “New jaspamide derivatives from the marine sponge Jaspis splendans collected in Vanuatu” (J Nat Prod, 1999).
